According to ChEMBL document CHEMBL5584344, “Discovery of Dehydrogenated Imipridone Derivatives as Activators of Human Caseinolytic Protease P” (J Med Chem, 2024):
Activity calls are given as the source filed them. The calls are words filed in the database; no cut-off is given here.

Key:
[1] = test system: MIA PaCa-2; experiment: Induction of apoptosis in human MIA PaCa-2 cells assessed as viable cells at 100 nM measured after 72 hrs by Annexin V-FITC/propidium iodide staining based flow cytometric analysis (reference value: 90.0%); assay type: functional; conditions: read-out: Activity
[2] = test system: MIA PaCa-2; experiment: Induction of apoptosis in human MIA PaCa-2 cells assessed as viable cells at 200 nM measured after 72 hrs by Annexin V-FITC/propidium iodide staining based flow cytometric analysis (reference value: 90.0%); assay type: functional; conditions: read-out: Activity
[3] = test system: MIA PaCa-2; experiment: Induction of apoptosis in human MIA PaCa-2 cells assessed as early apoptotic cells at 100 nM measured after 72 hrs by Annexin V-FITC/propidium iodide staining based flow cytometric analysis (reference value: 5.99%); assay type: functional
[4] = test system: MIA PaCa-2; experiment: Induction of apoptosis in human MIA PaCa-2 cells assessed as early apoptotic cells at 200 nM measured after 72 hrs by Annexin V-FITC/propidium iodide staining based flow cytometric analysis (reference value: 5.99%); assay type: functional
[5] = test system: MIA PaCa-2; experiment: Induction of apoptosis in human MIA PaCa-2 cells assessed as late apoptotic cells at 200 nM measured after 72 hrs by Annexin V-FITC/propidium iodide staining based flow cytometric analysis (reference value: 3.59%); assay type: functional
[6] = test system: MIA PaCa-2; experiment: Induction of apoptosis in human MIA PaCa-2 cells assessed as late apoptotic cells at 500 nM measured after 72 hrs by Annexin V-FITC/propidium iodide staining based flow cytometric analysis (reference value: 3.59%); assay type: functional
[7] = test system: MIA PaCa-2; experiment: Induction of apoptosis in human MIA PaCa-2 cells assessed as necrotic cells at 100 nM measured after 72 hrs by Annexin V-FITC/propidium iodide staining based flow cytometric analysis (reference value: 0.38%); assay type: functional
[8] = test system: MIA PaCa-2; experiment: Induction of apoptosis in human MIA PaCa-2 cells assessed as necrotic cells at 200 nM measured after 72 hrs by Annexin V-FITC/propidium iodide staining based flow cytometric analysis (reference value: 0.38%); assay type: functional
[9] = test system: MIA PaCa-2; experiment: Induction of apoptosis in human MIA PaCa-2 cells assessed as necrotic cells at 500 nM measured after 72 hrs by Annexin V-FITC/propidium iodide staining based flow cytometric analysis (reference value: 0.38%); assay type: functional
[10] = test system: MIA PaCa-2; experiment: Induction of apoptosis in human MIA PaCa-2 cells transfected with empty vector assessed as viable cells at 100 nM measured after 72 hrs by Annexin V-FITC/propidium iodide staining based flow cytometric analysis (reference value: 93.2%); assay type: functional; conditions: read-out: Activity
[11] = test system: MIA PaCa-2; experiment: Induction of apoptosis in human MIA PaCa-2 cells transfected with empty vector assessed as late apoptotic cells at 100 nM measured after 72 hrs by Annexin V-FITC/propidium iodide staining based flow cytometric analysis (reference value: 2.81%); assay type: functional
[12] = test system: MIA PaCa-2; experiment: Induction of apoptosis in human MIA PaCa-2 cells transfected with empty vector assessed as necrotic cells at 100 nM measured after 72 hrs by Annexin V-FITC/propidium iodide staining based flow cytometric analysis (reference value: 1.18%); assay type: functional
[13] = test system: MIA PaCa-2; experiment: Induction of apoptosis in human MIA PaCa-2 cells transfected with shNC assessed as viable cells at 200 nM measured after 72 hrs by Annexin V-FITC/propidium iodide staining based flow cytometric analysis (reference value: 86.7%); assay type: functional; conditions: read-out: Activity
[14] = test system: MIA PaCa-2; experiment: Induction of apoptosis in human MIA PaCa-2 cells transfected with shNC assessed as early apoptotic cells at 200 nM measured after 72 hrs by Annexin V-FITC/propidium iodide staining based flow cytometric analysis (reference value: 5.95%); assay type: functional
[15] = test system: MIA PaCa-2; experiment: Induction of apoptosis in human MIA PaCa-2 cells transfected with shNC assessed as late apoptotic cells at 200 nM measured after 72 hrs by Annexin V-FITC/propidium iodide staining based flow cytometric analysis (reference value: 4.02%); assay type: functional
[16] = test system: MIA PaCa-2; experiment: Induction of apoptosis in human MIA PaCa-2 cells transfected with […] assessed as viable cells at 200 nM measured after 72 hrs by Annexin V-FITC/propidium iodide staining based flow cytometric analysis (reference value: 87.3%); assay type: functional; conditions: read-out: Activity
[17] = test system: MIA PaCa-2; experiment: Induction of apoptosis in human MIA PaCa-2 cells transfected with shClpP-1 assessed as late apoptotic cells at 200 nM measured after 72 hrs by Annexin V-FITC/propidium iodide staining based flow cytometric analysis (reference value: 3.67%); assay type: functional
[18] = test system: MIA PaCa-2; experiment: Induction of apoptosis in human MIA PaCa-2 cells transfected with […] assessed as viable cells at 200 nM measured after 72 hrs by Annexin V-FITC/propidium iodide staining based flow cytometric analysis (reference value: 86.7%); assay type: functional; conditions: read-out: Activity
[19] = test system: MIA PaCa-2; experiment: Induction of apoptosis in human MIA PaCa-2 cells transfected with […] assessed as early apoptotic cells at 200 nM measured after 72 hrs by Annexin V-FITC/propidium iodide staining based flow cytometric analysis (reference value: 5.00%); assay type: functional
[20] = test system: MIA PaCa-2; experiment: Induction of apoptosis in human MIA PaCa-2 cells transfected with […] assessed as late apoptotic cells at 200 nM measured after 72 hrs by Annexin V-FITC/propidium iodide staining based flow cytometric analysis (reference value: 3.60%); assay type: functional
[21] = test system: MIA PaCa-2; experiment: Induction of apoptosis in human MIA PaCa-2 cells transfected with […] assessed as necrotic cells at 200 nM measured after 72 hrs by Annexin V-FITC/propidium iodide staining based flow cytometric analysis (reference value: 4.69%); assay type: functional
[22] = molecular target: Voltage-gated inwardly rectifying potassium channel KCNH2 (Homo sapiens, UniProt Q12809); experiment: Inhibition of human ERG expressed in HEK293 cells at 10 uM by automated patch clamp assay; assay type: toxicity, cell-based; conditions: hek293, 10 µM
Voltage-gated inwardly rectifying potassium channel KCNH2, sequence (Q12809 whole entry): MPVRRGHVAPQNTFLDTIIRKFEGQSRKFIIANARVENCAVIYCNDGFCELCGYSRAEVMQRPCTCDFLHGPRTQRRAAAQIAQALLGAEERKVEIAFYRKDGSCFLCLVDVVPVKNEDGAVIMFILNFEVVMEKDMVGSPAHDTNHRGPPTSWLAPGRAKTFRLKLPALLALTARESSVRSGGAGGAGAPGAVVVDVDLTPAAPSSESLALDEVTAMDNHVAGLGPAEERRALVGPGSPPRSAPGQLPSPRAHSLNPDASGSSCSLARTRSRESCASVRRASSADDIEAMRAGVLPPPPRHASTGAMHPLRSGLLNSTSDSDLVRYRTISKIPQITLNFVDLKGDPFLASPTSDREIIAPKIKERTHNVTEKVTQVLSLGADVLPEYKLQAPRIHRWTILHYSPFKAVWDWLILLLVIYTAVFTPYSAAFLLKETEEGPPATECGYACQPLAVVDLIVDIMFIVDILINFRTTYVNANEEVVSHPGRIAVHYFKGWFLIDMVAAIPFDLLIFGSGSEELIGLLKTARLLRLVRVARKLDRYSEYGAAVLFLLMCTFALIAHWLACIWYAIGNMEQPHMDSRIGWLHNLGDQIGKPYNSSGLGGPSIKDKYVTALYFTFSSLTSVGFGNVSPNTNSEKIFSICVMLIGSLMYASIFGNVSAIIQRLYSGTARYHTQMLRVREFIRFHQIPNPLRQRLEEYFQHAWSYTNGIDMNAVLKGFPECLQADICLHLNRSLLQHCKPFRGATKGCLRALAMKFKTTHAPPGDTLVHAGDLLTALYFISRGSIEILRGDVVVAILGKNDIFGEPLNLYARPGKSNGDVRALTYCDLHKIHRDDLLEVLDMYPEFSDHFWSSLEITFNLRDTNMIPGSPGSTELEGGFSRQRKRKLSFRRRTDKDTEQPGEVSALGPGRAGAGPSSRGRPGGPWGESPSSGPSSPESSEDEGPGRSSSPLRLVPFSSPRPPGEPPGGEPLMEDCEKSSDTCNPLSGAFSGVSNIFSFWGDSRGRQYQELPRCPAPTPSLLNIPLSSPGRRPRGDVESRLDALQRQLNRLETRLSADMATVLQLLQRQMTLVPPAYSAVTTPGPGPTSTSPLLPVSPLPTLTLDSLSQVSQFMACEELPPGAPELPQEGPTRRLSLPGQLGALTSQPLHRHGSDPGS

[23] = Metabolic stability in human liver microsomes assessed as intrinsic clearance at 1.0 uM measured upto 120 mins in presence of NADPH by LC/MS analysis; assay type: ADME, Microsome; conditions: read-out: CLH
[24] = Tmax in Sprague-Dawley rat at 15 mg/kg, po measured upto 1440 mins by LC-MS analysis; assay type: ADME, organism-based; conditions: in vivo
[25] = Drug concentration in Sprague-Dawley rat plasma at 15 mg/kg, po measured after 0.5 hrs by LC-MS analysis; assay type: ADME, organism-based
[26] = Drug concentration in Sprague-Dawley rat plasma at 15 mg/kg, po measured after 6 hrs by LC-MS analysis; assay type: ADME, organism-based
[27] = Drug concentration in Sprague-Dawley rat brain at 15 mg/kg, po measured after 6 hrs by LC-MS analysis; assay type: ADME, organism-based
[28] = Acute toxicity in female BALB/c mouse assessed as effect on lung at 200 mg/kg administered via oral gavage measured after 7 days by H and E staining based analysis; assay type: organism-based; conditions: in vivo, 168 h, time 7 day
[29] = Acute toxicity in female BALB/c mouse assessed as effect on body weight at 300 mg/kg administered via oral gavage measured after 3 days; assay type: organism-based; conditions: in vivo, 72 h, time 3 day
[30] = Toxicity in male BALB/c nude mouse histological abnormality in heart at 15 to 30 mg/kg, po measured after 28 days by H and E staining based analysis; assay type: organism-based; conditions: in vivo, 672 h, dose 15-30 mg/kg, time 28 day
[31] = test system: MIA PaCa-2; conditions: Homo sapiens, dose 50-200 nM, time 48.0 hrs
[32] = test system: MIA PaCa-2; conditions: Homo sapiens, dose 50.0 nM, time 72.0 hrs

`O=c1c2c(n3ccnc3n1Cc1ccc(C(F)(F)F)cc1)CCN(Cc1cccc(Cl)c1)C2` gave a viability at 0.1 µM [1] of 80.5%, a viability at 0.2 µM [2] of 52.3% and an Activity [3] of 13.8%. The Activity [4] was 28.3%, the Activity [5] was 19% and the Activity [6] was 32.3%. It also gave an Activity [7] of 0.22%, an Activity [8] of 0.39% and an Activity [9] of 0.52%. It also gave a viability at 0.1 µM [10] of 92.1%, an Activity [11] of 3.74% and an Activity [12] of 0.61%. It also gave a viability at 0.2 µM [13] of 53.8%, an Activity [14] of 27.4% and an Activity [15] of 17.1%. For the same molecule, the viability at 0.2 µM [16] was 84.2%, the Activity [17] was 6.98% and the viability at 0.2 µM [18] was 84.7%. The Activity [19] was 5.2%, the Activity [20] was 6.73% and the Activity [21] was 3.36%. For the same molecule, the “inhibition (INH)” value [22] was “Active”, the CLint scaled at 1 µM [23] was 144 mL/min/kg and the Tmax [24] was 1.29 h. For the same molecule, the concentration at 0.5 h [25] was 612 ng/mL, the concentration at 6 h [26] was 495 ng/mL and the concentration at 6 h [27] was 287 ng/g. For the same molecule, the Activity [28] was “Non-Toxic”, the Activity [29] was “Toxic” and the Activity [30] was “Non-Toxic”. For the same molecule, the inhibition [31] was “Dose-Dependent Effect” and the inhibition [32] was “Active”.
